Experimental data: PubChem BioAssay AID328 (DTP/NCI, 2004)
Values joined by “and” are separate entries in the source; they are usually repeats but may differ in a detail not shown here. Identical values can stand only once. Inconclusive results and toxic doses are left out.

Tested on: BDF1 mice, P388 leukemia ip, median survival T/C
Test: NCI In Vivo Anticancer Drug Screen. Data for tumor model P388 Leukemia (intraperitoneal) in B6D2F1 (BDF1) mice
Details: endpoint: median survival time, higher = longer survival
Outline: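 Mice carrying the transplantable tumour receive compound or vehicle. Survival is followed in each arm, and the treated measure is divided by the vehicle measure.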

[1] = dose: 6.25 mg/kg/injection, schedule: Q01DX009 (ip), vehicle: saline with Tween-80
[2] = dose: 12.5 mg/kg/injection, schedule: Q01DX009 (ip), vehicle: Klucel (hydroxypropylcellulose) (HPC)
[3] = dose: 12.5 mg/kg/injection, schedule: Q01DX009 (ip), vehicle: saline with Tween-80
[4] = dose: 25.0 mg/kg/injection, schedule: Q01DX009 (ip), vehicle: Klucel (hydroxypropylcellulose) (HPC)
[5] = dose: 25.0 mg/kg/injection, schedule: Q01DX009 (ip), vehicle: saline with Tween-80
[6] = dose: 50.0 mg/kg/injection, schedule: Q01DX009 (ip), vehicle: Klucel (hydroxypropylcellulose) (HPC)
[7] = dose: 100.0 mg/kg/injection, schedule: Q01DX009 (ip), vehicle: saline with Tween-80
[8] = dose: 200.0 mg/kg/injection, schedule: Q04DX003 (ip), vehicle: Klucel (hydroxypropylcellulose) (HPC)
[9] = dose: 50.0 mg/kg/injection, schedule: Q04DX003 (ip), vehicle: Klucel (hydroxypropylcellulose) (HPC)
[10] = dose: 100.0 mg/kg/injection, schedule: Q04DX003 (ip), vehicle: Klucel (hydroxypropylcellulose) (HPC)
[11] = dose: 200.0 mg/kg/injection, schedule: Q01DX009 (ip), vehicle: saline with Tween-80
[12] = dose: 400.0 mg/kg/injection, schedule: Q01DX009 (ip), vehicle: saline with Tween-80

What does the source list for `COC1C(O)C(C)OC(OC2C(Oc3cccc4c(O)c5c(=O)oc6ccc(C)c7c(=O)oc(c34)c5c67)OC(C)C(O)C2O)C1O` (stereo unspecified)?
T/C (dose: 0.39 mg/kg/injection, schedule: Q01DX009 (ip), vehicle: other): 98 % of control and 121 % of control; T/C (dose: 0.39 mg/kg/injection, schedule: Q01DX009 (oral), vehicle: Klucel (hydroxypropylcellulose) (HPC)): 110 % of control; T/C (dose: 0.78 mg/kg/injection, schedule: Q01DX009 (ip), vehicle: other): 104 % of control; T/C (dose: 0.78 mg/kg/injection, schedule: Q01DX009 (oral), vehicle: Klucel (hydroxypropylcellulose) (HPC)): 100 % of control; T/C (dose: 1.56 mg/kg/injection, schedule: Q01DX009 (ip), vehicle: other): 106 % of control; T/C (dose: 1.56 mg/kg/injection, schedule: Q01DX009 (oral), vehicle: Klucel (hydroxypropylcellulose) (HPC)): 98 % of control and 104 % of control; T/C (dose: 3.12 mg/kg/injection, schedule: Q01DX009 (ip), vehicle: Klucel (hydroxypropylcellulose) (HPC)): 159 % of control; T/C (dose: 3.12 mg/kg/injection, schedule: Q01DX009 (ip), vehicle: other): 159 % of control; T/C (dose: 3.12 mg/kg/injection, schedule: Q01DX009 (oral), vehicle: Klucel (hydroxypropylcellulose) (HPC)): 109 % of control and 110 % of control; T/C (dose: 3.13 mg/kg/injection, schedule: Q01DX009 (ip), vehicle: saline with Tween-80): 162 % of control; T/C (dose: 6.25 mg/kg/injection, schedule: Q01DX009 (ip), vehicle: Klucel (hydroxypropylcellulose) (HPC)): 173 % of control; T/C (dose: 6.25 mg/kg/injection, schedule: Q01DX009 (ip), vehicle: other): 200 % of control; T/C [1]: 217 % of control; T/C (dose: 6.25 mg/kg/injection, schedule: Q01DX009 (oral), vehicle: Klucel (hydroxypropylcellulose) (HPC)): 101 % of control and 106 % of control; T/C (dose: 8.0 mg/kg/injection, schedule: Q04DX003 (ip), vehicle: saline with Tween-80): 150 % of control; T/C [2]: 209 % of control; T/C (dose: 12.5 mg/kg/injection, schedule: Q01DX009 (ip), vehicle: other): 156 % of control and 165 % of control and 205 % of control; T/C [3]: 190 % of control and 199 % of control; T/C (dose: 12.5 mg/kg/injection, schedule: Q01DX009 (oral), vehicle: Klucel (hydroxypropylcellulose) (HPC)): 103 % of control and 105 % of control; T/C (dose: 16.0 mg/kg/injection, schedule: Q04DX003 (ip), vehicle: saline with Tween-80): 173 % of control; T/C [4]: 221 % of control; T/C (dose: 25.0 mg/kg/injection, schedule: Q01DX009 (ip), vehicle: other): 167 % of control and 215 % of control; T/C [5]: 236 % of control and 210 % of control; T/C (dose: 25.0 mg/kg/injection, schedule: Q01DX009 (oral), vehicle: Klucel (hydroxypropylcellulose) (HPC)): 100 % of control and 105 % of control; T/C (dose: 32.0 mg/kg/injection, schedule: Q04DX003 (ip), vehicle: saline with Tween-80): 172 % of control; T/C (dose: 43.2 mg/kg/injection, schedule: Q04DX003 (ip), vehicle: Klucel (hydroxypropylcellulose) (HPC)): 170 % of control; T/C (dose: 43.2 mg/kg/injection, schedule: Q04DX003 (ip), vehicle: acid diluted with saline): 153 % of control; T/C [6]: 221 % of control; T/C (dose: 50.0 mg/kg/injection, schedule: Q01DX009 (ip), vehicle: other): 231 % of control and 193 % of control; T/C (dose: 50.0 mg/kg/injection, schedule: Q01DX009 (ip), vehicle: saline with Tween-80): 190 % of control; T/C (dose: 50.0 mg/kg/injection, schedule: Q01DX009 (oral), vehicle: Klucel (hydroxypropylcellulose) (HPC)): 103 % of control and 111 % of control; T/C (dose: 64.0 mg/kg/injection, schedule: Q04DX003 (ip), vehicle: saline with Tween-80): 175 % of control; T/C (dose: 72.0 mg/kg/injection, schedule: Q04DX003 (ip), vehicle: Klucel (hydroxypropylcellulose) (HPC)): 173 % of control; T/C (dose: 72.0 mg/kg/injection, schedule: Q04DX003 (ip), vehicle: acid diluted with saline): 173 % of control; T/C (dose: 100.0 mg/kg/injection, schedule: Q01DX009 (ip), vehicle: Klucel (hydroxypropylcellulose) (HPC)): 170 % of control; T/C [7]: 190 % of control and 220 % of control; T/C (dose: 100.0 mg/kg/injection, schedule: Q01DX009 (oral), vehicle: Klucel (hydroxypropylcellulose) (HPC)): 104 % of control; T/C (dose: 120.0 mg/kg/injection, schedule: Q04DX003 (ip), vehicle: Klucel (hydroxypropylcellulose) (HPC)): 184 % of control; T/C (dose: 120.0 mg/kg/injection, schedule: Q04DX003 (ip), vehicle: acid diluted with saline): 180 % of control; T/C (dose: 128.0 mg/kg/injection, schedule: Q04DX003 (ip), vehicle: saline with Tween-80): 182 % of control; T/C (dose: 200.0 mg/kg/injection, schedule: Q01DX009 (oral), vehicle: Klucel (hydroxypropylcellulose) (HPC)): 105 % of control; T/C [8]: 175 % of control; T/C (dose: 200.0 mg/kg/injection, schedule: Q04DX003 (ip), vehicle: acid diluted with saline): 173 % of control

What does the source list for `O=C(c1ccccc1)c1cccc(Cl)c1`?
T/C [9]: 104 % of control; T/C [10]: 90 % of control; T/C [8]: 104 % of control

Which T/C (dose: 1.25 mg/kg/injection, schedule: Q01DX009 (ip), vehicle: Klucel (hydroxypropylcellulose) (HPC)) does the source give for `N#Cc1c(F)c(F)c(C#N)c(F)c1F` here?
The T/C was 100 % of control.

And the T/C (dose: 2.5 mg/kg/injection, schedule: Q01DX009 (ip), vehicle: Klucel (hydroxypropylcellulose) (HPC))?
The T/C was 104 % of control.

What about the T/C (dose: 5.0 mg/kg/injection, schedule: Q01DX009 (ip), vehicle: Klucel (hydroxypropylcellulose) (HPC)) of the same compound?
Its T/C is 108 % of control.

What about the T/C (dose: 10.0 mg/kg/injection, schedule: Q01DX009 (ip), vehicle: Klucel (hydroxypropylcellulose) (HPC)) of the same compound?
The T/C was 104 % of control.

How did the T/C [7] turn out when `Oc1ccc2ccccc2c1N=Nc1ccc(F)cc1` was run?
Its T/C is 100 % of control.

And the T/C [11]?
The T/C was 90 % of control.

And the T/C [12]?
Its T/C is 95 % of control.

With `Nc1nc(N)c2cc(CNc3ccc(C(=O)NC(CC(=O)O)CC(=O)O)cc3)ccc2n1` as the compound, how does the T/C (dose: 132.0 mg/kg/injection, schedule: Q01DX009 (ip), vehicle: saline with Tween-80) read?
Its T/C is 90 % of control.

`Cc1ccc(S(=O)(=O)NCN2C(=O)c3ccccc3C2=O)cc1` was tested. Which T/C [2] did it give?
Its T/C is 100 % of control.

What about the T/C [4] of the same compound?
The T/C was 100 % of control.

And the T/C [5]?
The T/C was 86 % of control.

And the T/C [6]?
The T/C was 105 % of control.

And the T/C (dose: 100.0 mg/kg/injection, schedule: Q01DX009 (ip), vehicle: saline)?
Its T/C is 91 % of control.

With `N#CCNC(=O)c1ccccc1` as the compound, how does the T/C (dose: 6.0 mg/kg/injection, schedule: Q01DX009 (ip), vehicle: Klucel (hydroxypropylcellulose) (HPC)) read?
Its T/C is 88 % of control.

And the T/C (dose: 12.0 mg/kg/injection, schedule: Q01DX009 (ip), vehicle: Klucel (hydroxypropylcellulose) (HPC))?
Its T/C is 88 % of control.

What about the T/C [4] of the same compound?
The T/C was 91 % of control.

What about the T/C (dose: 25.0 mg/kg/injection, schedule: Q04DX003 (ip), vehicle: Klucel (hydroxypropylcellulose) (HPC)) of the same compound?
Its T/C is 110 % of control.

What about the T/C [9] of the same compound?
Its T/C is 110 % of control.

What about the T/C [10] of the same compound?
Its T/C is 90 % of control.

For `O=c1[nH]c2ccccc2nc1CBr`, which T/C [1] is on record?
The T/C was 118 % of control and 122 % of control.

And the T/C (dose: 7.5 mg/kg/injection, schedule: Q04DX003 (ip), vehicle: saline with Tween-80)?
Its T/C is 118 % of control.

And the T/C [3]?
Its T/C is 118 % of control.

What about the T/C (dose: 12.5 mg/kg/injection, schedule: Q04DX003 (ip), vehicle: saline with Tween-80) of the same compound?
The T/C was 109 % of control.

What about the T/C (dose: 15.0 mg/kg/injection, schedule: Q04DX003 (ip), vehicle: saline with Tween-80) of the same compound?
The T/C was 104 % of control.

What about the T/C (dose: 25.0 mg/kg/injection, schedule: Q04DX003 (ip), vehicle: saline with Tween-80) of the same compound?
The T/C was 113 % of control.

What about the T/C (dose: 30.0 mg/kg/injection, schedule: Q04DX003 (ip), vehicle: saline with Tween-80) of the same compound?
The T/C was 118 % of control.

What about the T/C (dose: 60.0 mg/kg/injection, schedule: Q04DX003 (ip), vehicle: saline with Tween-80) of the same compound?
The T/C was 100 % of control.

What does the source list for `Oc1ccc2ccccc2c1N=Nc1ccc(Cl)cc1`?
T/C [7]: 104 % of control; T/C [11]: 95 % of control; T/C [12]: 95 % of control

Which results are given for `Cc1cc(C)c2c(=O)[nH][nH]c2n1`?
T/C [7]: 96 % of control; T/C [11]: 100 % of control; T/C [12]: 94 % of control

What does the source list for `CS(C)=O.CS(C)=O.CS(C)=O.[Cl][Rh]([Cl])[Cl]`?
T/C (dose: 3.12 mg/kg/injection, schedule: Q01DX009 (ip), vehicle: saline): 114 % of control; T/C (dose: 6.25 mg/kg/injection, schedule: Q01DX009 (ip), vehicle: saline): 114 % of control; T/C (dose: 12.5 mg/kg/injection, schedule: Q01DX009 (ip), vehicle: saline): 116 % of control; T/C (dose: 25.0 mg/kg/injection, schedule: Q01DX009 (ip), vehicle: saline): 104 % of control and 116 % of control; T/C (dose: 50.0 mg/kg/injection, schedule: Q01DX009 (ip), vehicle: saline): 116 % of control; T/C (dose: 50.0 mg/kg/injection, schedule: Q04DX003 (ip), vehicle: saline): 100 % of control; T/C (dose: 100.0 mg/kg/injection, schedule: Q04DX003 (ip), vehicle: saline): 109 % of control
